# Laboratory results: patent US20060286139A1, “Polymeric drug release system for medical devices” (priority 2003, published 2006)
# Assay: Drug elution from dual-coated stents (17β-estradiol in PEP94 bottom layer, dexamethasone in PEP90 top layer) into aqueous release medium, HPLC analysis
# Type: physicochemical
# Details: for Percentage Released: bottom layer PEP94, aqueous release medium 37° C.; for Total Microgrammes Released: bottom layer PEP94, loading approx 147 μg, aqueous release medium 37° C.
# Experimental: This example describes the preparation and elution of stents comprising 17β-estradiol and dexamethasone each contained within a specific ratio of PVB/PnVPA
# A coating solution was prepared made up of PEP94 and 17β-estradiol in a blend of chloroform and acetone (80:20 by weight), so that in terms of total solids 25% was 17β-estradiol, 75% polymer.
# A second coating solution was prepared made of PEP 90 and dexamethasone in a mixture of chloroform and acetone (80:20 by weight), so that in terms of total solids 25% was dexamethasone, 75% polymer.
# The stents were weighed, spray coated in a ratio of 3:1 (estradiol: dexamethasone) with the respective formulations such that the bottom layer comprised PEP94 with 17β-estradiol and the top layer PEP90 with dexamethasone. The stents were then dried overnight at 40° C. under vacuum.
# Upon weighing the average coating weight of the stents was 811 μg yielding drug loadings of approx 147 μg±17 μg for 17β-estradiol and 57 μg±16 μg for dexamethasone.
# Each stent was placed on a hook and suspended in a vial containing 8 ml of an aqueous release medium with a 5 mm magnetic flea. The vials were placed on a multipoint stirrer set at 1000 rpm and incubated at 37° C. After a given time interval (ranging from 1 hour to several days), the stents were transferred to fresh aliquots of release medium and replaced on the stirrer to resume agitation. The solution containing dexamethasone/17β-estradiol was set aside for analysis.
# Analysis of the samples was carried out using HPLC (Agilent 1100 series).
structure (smiles),measurement,setting,value
C[C@]12CC[C@@H]3c4ccc(O)cc4CC[C@H]3[C@@H]1CC[C@@H]2O [17β-estradiol],Percentage Released,time 1 hour,5.1%
same,Percentage Released,time 7 hours,10.5%
same,Percentage Released,time 24 hours,17.1%
same,Total Microgrammes Released,time 1 hour,7.5 µg
same,Total Microgrammes Released,time 7 hours,15.5 µg
same,Total Microgrammes Released,time 24 hours,25.1 µg
